Data on twelve compounds can be found in ChEMBL document CHEMBL1201862, “PubChem BioAssay data set” (2004).

As a reminder, the GI50 is the concentration at which growth is held to half of that of the control.

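48-hour exposure; five concentrations; linearly interpolated endpoints. GI50 marks 50% less growth.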 Activity calls are given as the source filed them. No stated cut-off is given here; in the data, active = GI50 up to about 1.1 µM and inactive = higher.

Test systems include UACC-62; OVCAR-3; HCT-15; NCI-H226; MCF7; IGROV-1; HCC 2998; COLO 205; SNB-75; OVCAR-4; EKVX; M14; SN12C; MDA-MB-435; SW-620; SK-MEL-5; HT-29; NCI/ADR-RES; SF-539.
Test in all cases: DTP human tumour cell line panel, 48 h

Regarding `COc1cc(C(c2cc3c(cc2O)OCO3)N2CCCC2)cc(OC)c1OC` (stereo not given), the GI50 in the experiment with UACC-62 is 15.8 µM (inactive); with OVCAR-3, 17.7 µM (inactive); in the experiment on HCT-15, 8.43 µM; with NCI-H226 it was 17.4 µM (inactive); with MCF7 it was 26.9 µM (inactive); in the experiment on IGROV-1, 12.4 µM (inactive). For the same compound, the GI50 in the experiment with HCC 2998 is 28.5 µM (inactive); with COLO 205 it was 11.7 µM (inactive); in the experiment with SNB-75 it was 16.2 µM (inactive); in the experiment with OVCAR-4, 17 µM (inactive); with EKVX, 14.7 µM (inactive); with M14, 24.5 µM (inactive). The GI50 in the experiment with SN12C is 12.2 µM (inactive); in the experiment on MDA-MB-435, 13.4 µM (inactive); in the experiment on SW-620, 3.4 µM (inactive); with SK-MEL-5, 16.4 µM (inactive); with HT-29, 10.4 µM (inactive); in the experiment with NCI/ADR-RES, 17.3 µM (inactive).

In the case of `CN(C(=O)C12C3(C(=O)O)C4C5(C(=O)O)C3C1(C(=O)O)C5C42C(=O)O)C(C)(C)C` (stereo not given), the GI50 is > 100 µM (inactive) with UACC-62; > 100 µM (inactive) with OVCAR-3; > 100 µM (inactive) with SF-539; above 100 µM in the experiment on HCT-15; > 100 µM (inactive) with MCF7; > 100 µM (inactive) with IGROV-1. The GI50 in the experiment with HCC 2998 was > 100 µM (inactive); in the experiment on COLO 205, > 100 µM (inactive); with SNB-75, 0.442 µM (active); in the experiment on OVCAR-4, > 100 µM (inactive); in the experiment with EKVX, > 100 µM (inactive); in the experiment with M14, > 100 µM (inactive). In addition, the GI50 in the experiment with SN12C, in the experiment with MDA-MB-435, in the experiment with SW-620, in the experiment on SK-MEL-5, with HT-29 and in the experiment on NCI/ADR-RES was > 100 µM (inactive) in each case.

With `COc1ccc([N+](=O)[O-])c2c(NCCCN(C)C)c(C)c(C)nc12`, the GI50 is 81.3 µM (inactive) in the experiment on UACC-62; 96.6 µM (inactive) with OVCAR-3; > 100 µM (inactive) with SF-539; 22.4 µM in the experiment on HCT-15; 49.9 µM (inactive) with MCF7; 36.6 µM (inactive) in the experiment on IGROV-1. For the same compound, the GI50 in the experiment with HCC 2998 is > 100 µM (inactive); in the experiment with COLO 205 it was 26.2 µM (inactive); in the experiment on SNB-75, 36.1 µM (inactive); in the experiment with OVCAR-4, 27.8 µM (inactive); with M14, > 100 µM (inactive); in the experiment with SN12C, > 100 µM (inactive). Besides, the GI50 in the experiment on MDA-MB-435 was > 100 µM (inactive); in the experiment on SW-620 it was 54 µM (inactive); in the experiment with SK-MEL-5, 46.8 µM (inactive); in the experiment on HT-29 it was 42.6 µM (inactive); in the experiment on NCI/ADR-RES, > 100 µM (inactive).

Consider `O=C1c2ccccc2C(=O)N1c1ccc(OCCN2CCCCC2)cc1`, for which the GI50 in the experiment with UACC-62 was > 100 µM (inactive); in the experiment with OVCAR-3, > 100 µM (inactive); with SF-539 it was > 100 µM (inactive); with HCT-15, above 100 µM; in the experiment with NCI-H226 it was > 100 µM (inactive); with MCF7, > 100 µM (inactive). In addition, the GI50 in the experiment with IGROV-1, in the experiment on HCC 2998, in the experiment on COLO 205, in the experiment on OVCAR-4, in the experiment with EKVX and in the experiment on M14 was > 100 µM (inactive) throughout. Also, the GI50 with SN12C, in the experiment with MDA-MB-435, in the experiment with SW-620, with SK-MEL-5, in the experiment on HT-29 and in the experiment on NCI/ADR-RES was > 100 µM (inactive) each time.

Consider `COCC1OC(Sc2ccccc2)C(O)C(OC)C1OC` (stereo not given), for which the GI50 with UACC-62 was > 100 µM (inactive); in the experiment with OVCAR-3, > 100 µM (inactive); with SF-539, > 100 µM (inactive); in the experiment on HCT-15, above 100 µM; in the experiment on NCI-H226, > 100 µM (inactive); in the experiment with MCF7 it was > 100 µM (inactive). Further, the GI50 with IGROV-1, with HCC 2998, in the experiment on COLO 205, in the experiment with OVCAR-4, with EKVX and in the experiment on M14 was > 100 µM (inactive) in each case. Moreover, the GI50 in the experiment on SN12C, in the experiment on MDA-MB-435, in the experiment on SW-620, in the experiment with SK-MEL-5, with HT-29 and in the experiment with NCI/ADR-RES was > 100 µM (inactive) each time.

For `O=C(CCCCCCCCC(=O)N1C(=O)CC(=O)N(c2ccccc2)C1=S)N1C(=O)CC(=O)N(c2ccccc2)C1=S`, the GI50 is > 100 µM (inactive) in the experiment on UACC-62; > 100 µM (inactive) in the experiment with OVCAR-3; above 100 µM in the experiment on HCT-15; > 100 µM (inactive) in the experiment on MCF7; > 100 µM (inactive) with HCC 2998; > 100 µM (inactive) in the experiment on COLO 205. Moreover, the GI50 with SNB-75, in the experiment with OVCAR-4, with EKVX, in the experiment on M14, in the experiment with SN12C and in the experiment on MDA-MB-435 was > 100 µM (inactive) each time. For the same compound, the GI50 with SK-MEL-5, in the experiment with HT-29 and with NCI/ADR-RES was > 100 µM (inactive) throughout.

In the case of `CCO[C@]12CCC[C@H]1[C@@H]1C(=O)c3ccccc3C(=O)C1=C(C)O2`, the GI50 with UACC-62 was > 100 µM (inactive); in the experiment with OVCAR-3 it was 22 µM (inactive); with SF-539, 29.4 µM (inactive); with HCT-15, above 100 µM; in the experiment with MCF7 it was 17 µM (inactive); in the experiment with IGROV-1 it was > 100 µM (inactive). The GI50 in the experiment on HCC 2998 was > 100 µM (inactive); in the experiment with COLO 205, > 100 µM (inactive); with SNB-75, 58.6 µM (inactive); in the experiment on OVCAR-4 it was 26.3 µM (inactive); in the experiment on EKVX, > 100 µM (inactive); in the experiment on M14, 34.3 µM (inactive). The GI50 with SN12C is > 100 µM (inactive); in the experiment on MDA-MB-435 it was 39.5 µM (inactive); in the experiment on SW-620, 37.2 µM (inactive); with SK-MEL-5, 33.7 µM (inactive); in the experiment with HT-29, > 100 µM (inactive); in the experiment with NCI/ADR-RES it was > 100 µM (inactive).

In the case of `O=C(Oc1c(I)ccccc1=O)c1ccc([N+](=O)[O-])cc1`, the GI50 is 22.6 µM (inactive) with UACC-62; 13.6 µM (inactive) with OVCAR-3; 17.9 µM (inactive) in the experiment on SF-539; 12.9 µM in the experiment on HCT-15; 17.2 µM (inactive) in the experiment with MCF7; 14.9 µM (inactive) with IGROV-1. Besides, the GI50 was 23.2 µM (inactive) in the experiment with HCC 2998; 14.7 µM (inactive) in the experiment on COLO 205; 12.4 µM (inactive) with EKVX; 26.2 µM (inactive) in the experiment on M14; 20.4 µM (inactive) in the experiment on SN12C; 19.4 µM (inactive) in the experiment on MDA-MB-435. In addition, the GI50 with SW-620 was 30.1 µM (inactive); in the experiment on SK-MEL-5 it was 0.51 µM (active); in the experiment on HT-29, 12.3 µM (inactive); in the experiment on NCI/ADR-RES it was 40.6 µM (inactive).

With `CO[C@]12C#CC=CC#C[C@@H](O)[C@]3(CCC1)O[C@@]23c1cccc(O)c1`, the GI50 with UACC-62 is 52.6 µM (inactive); with OVCAR-3, > 100 µM (inactive); in the experiment with HCT-15 it was above 100 µM; in the experiment with NCI-H226 it was > 100 µM (inactive); in the experiment on MCF7 it was > 100 µM (inactive); with HCC 2998 it was > 100 µM (inactive). The GI50 in the experiment with COLO 205, in the experiment with SNB-75, in the experiment on OVCAR-4, in the experiment on M14, with SN12C and with MDA-MB-435 was > 100 µM (inactive) throughout. Besides, the GI50 in the experiment on SW-620 and with NCI/ADR-RES was > 100 µM (inactive) each time.

With `COCC12CCC(OC)C34C5CC6(O)C(OC)CC(OC(C)=O)(C5C6OC(=O)c5ccccc5)C(C(OC)C13)C4N(C)C2` (stereo not given), the GI50 in the experiment on UACC-62 was > 100 µM (inactive); in the experiment on OVCAR-3, > 100 µM (inactive); with SF-539 it was > 100 µM (inactive); in the experiment with HCT-15, above 100 µM; with NCI-H226, > 100 µM (inactive); with MCF7 it was > 100 µM (inactive). Also, the GI50 with IGROV-1, in the experiment with HCC 2998, in the experiment with COLO 205, in the experiment with OVCAR-4, in the experiment with EKVX and in the experiment on M14 was > 100 µM (inactive) in each case. Moreover, the GI50 with SN12C, in the experiment on MDA-MB-435, in the experiment with SW-620, in the experiment on SK-MEL-5, in the experiment on HT-29 and in the experiment with NCI/ADR-RES was > 100 µM (inactive) each time.

Consider `C=C1c2cc3c(cc2CC12Cc1cc4c(cc1C2=O)CCC4)CCC3` (stereo not given), for which the GI50 was > 100 µM (inactive) with OVCAR-3; > 100 µM (inactive) in the experiment with SF-539; above 100 µM in the experiment with HCT-15; > 100 µM (inactive) in the experiment on MCF7; > 100 µM (inactive) in the experiment with IGROV-1; > 100 µM (inactive) in the experiment with HCC 2998. Also, the GI50 in the experiment on SNB-75, in the experiment on OVCAR-4, in the experiment with EKVX, in the experiment with M14, in the experiment on MDA-MB-435 and in the experiment on SW-620 was > 100 µM (inactive) in each case. Also, the GI50 with SK-MEL-5, with HT-29 and in the experiment on NCI/ADR-RES was > 100 µM (inactive) throughout.

`COc1ccc(Nc2nc3cc(C(F)(F)F)ccc3n3cccc23)cc1OC`: the GI50 was 15.5 µM (inactive) with UACC-62; 20.7 µM (inactive) in the experiment on OVCAR-3; 16.8 µM (inactive) in the experiment on SF-539; 11.4 µM in the experiment on HCT-15; 16.6 µM (inactive) in the experiment on MCF7; 25.5 µM (inactive) in the experiment on IGROV-1. Besides, the GI50 was 14 µM (inactive) with HCC 2998; 10.6 µM (inactive) in the experiment with SNB-75; 20.3 µM (inactive) in the experiment with EKVX; 14.3 µM (inactive) in the experiment with M14; 15.7 µM (inactive) with MDA-MB-435; 34.7 µM (inactive) in the experiment with SW-620. For the same compound, the GI50 is 14.5 µM (inactive) in the experiment with SK-MEL-5, 8.99 µM (inactive) in the experiment with HT-29 and 15.6 µM (inactive) in the experiment on NCI/ADR-RES.
